Reference: US11370796B2, “Substituted pyrazoles as LRRK2 inhibitors” (OSCOTEC INC., priority 2017, dated 2022)
Read-outs that look alike come from different tables or passages of the source.

Molecular target: LRRK2 (leucine-rich repeat kinase 2) (Homo sapiens (Human), UniProt Q5S007)
Assay: Inhibitory effect on LRRK2 in vitro (LANCE kinase assay)
Assay type: biochemical
Protocol: The inhibitory effect of Compounds 1 to 62 on LRRK2 (leucine-rich repeat kinase 2) in vitro was measured. In the analysis of the results, IC50 values were calculated for a quantitative comparison of the in vitro activity.
After the compound was dissolved in 100% DMSO at 10 mM, it was serially diluted to the range of 1 μM to 10 μM using biochemical LRRK2 assay buffer (50 mM HEPES (4-(2-hydroxyethyl)-1-piperazineethanesulfonic acid) pH 7.5, 10 mM MgCl2, 1 mM EGTA (1,2-bis(o-aminophenoxy)ethane-N,N,N′,N′-tetraacetic acid), 2 mM DTT (dithiothreitol), and 0.01% TWEEN-20 (Aldrich)). Purified LRRK2 (CARNA BIOSCIENCES) was added to a black U-bottom 96-well microtiter plate containing 6 μl of the serially diluted compound, followed by incubation at room temperature for 30 minutes. For the kinase reaction, ATP and a substrate solution specific urea-polypeptide (ULIGHT™-poly TK, PerkinElimer) were added. The reaction was carried out at room temperature for 1 hour, and it was detected with an detection solution (brand name: LANCE™) containing EDTA. A LANCE detection solution containing europium-labeled antibody ([…] PT66) was added, followed by incubation at room temperature for 50 minutes, to terminate the kinase experiment. The phosphorylated substrate was detected by 665 nm emission measurement. IC50 values were calculated by a non-linear regression analysis using a Prism program (PRISM™ software) with reference to the absence of a kinase inhibitor.
As a comparative assay, a compound LRR2-IN-1, that known to be a reference compound for LRRK2 inhibitor, have also tested an inhibitory activity.

[1] = Table 1, class symbols, read-out: LRRK2 inhibition rate (IC50)
[2] = purified LRRK2, Table 6, read-out: IC50

LRRK2 (leucine-rich repeat kinase 2), sequence (Q5S007 whole entry): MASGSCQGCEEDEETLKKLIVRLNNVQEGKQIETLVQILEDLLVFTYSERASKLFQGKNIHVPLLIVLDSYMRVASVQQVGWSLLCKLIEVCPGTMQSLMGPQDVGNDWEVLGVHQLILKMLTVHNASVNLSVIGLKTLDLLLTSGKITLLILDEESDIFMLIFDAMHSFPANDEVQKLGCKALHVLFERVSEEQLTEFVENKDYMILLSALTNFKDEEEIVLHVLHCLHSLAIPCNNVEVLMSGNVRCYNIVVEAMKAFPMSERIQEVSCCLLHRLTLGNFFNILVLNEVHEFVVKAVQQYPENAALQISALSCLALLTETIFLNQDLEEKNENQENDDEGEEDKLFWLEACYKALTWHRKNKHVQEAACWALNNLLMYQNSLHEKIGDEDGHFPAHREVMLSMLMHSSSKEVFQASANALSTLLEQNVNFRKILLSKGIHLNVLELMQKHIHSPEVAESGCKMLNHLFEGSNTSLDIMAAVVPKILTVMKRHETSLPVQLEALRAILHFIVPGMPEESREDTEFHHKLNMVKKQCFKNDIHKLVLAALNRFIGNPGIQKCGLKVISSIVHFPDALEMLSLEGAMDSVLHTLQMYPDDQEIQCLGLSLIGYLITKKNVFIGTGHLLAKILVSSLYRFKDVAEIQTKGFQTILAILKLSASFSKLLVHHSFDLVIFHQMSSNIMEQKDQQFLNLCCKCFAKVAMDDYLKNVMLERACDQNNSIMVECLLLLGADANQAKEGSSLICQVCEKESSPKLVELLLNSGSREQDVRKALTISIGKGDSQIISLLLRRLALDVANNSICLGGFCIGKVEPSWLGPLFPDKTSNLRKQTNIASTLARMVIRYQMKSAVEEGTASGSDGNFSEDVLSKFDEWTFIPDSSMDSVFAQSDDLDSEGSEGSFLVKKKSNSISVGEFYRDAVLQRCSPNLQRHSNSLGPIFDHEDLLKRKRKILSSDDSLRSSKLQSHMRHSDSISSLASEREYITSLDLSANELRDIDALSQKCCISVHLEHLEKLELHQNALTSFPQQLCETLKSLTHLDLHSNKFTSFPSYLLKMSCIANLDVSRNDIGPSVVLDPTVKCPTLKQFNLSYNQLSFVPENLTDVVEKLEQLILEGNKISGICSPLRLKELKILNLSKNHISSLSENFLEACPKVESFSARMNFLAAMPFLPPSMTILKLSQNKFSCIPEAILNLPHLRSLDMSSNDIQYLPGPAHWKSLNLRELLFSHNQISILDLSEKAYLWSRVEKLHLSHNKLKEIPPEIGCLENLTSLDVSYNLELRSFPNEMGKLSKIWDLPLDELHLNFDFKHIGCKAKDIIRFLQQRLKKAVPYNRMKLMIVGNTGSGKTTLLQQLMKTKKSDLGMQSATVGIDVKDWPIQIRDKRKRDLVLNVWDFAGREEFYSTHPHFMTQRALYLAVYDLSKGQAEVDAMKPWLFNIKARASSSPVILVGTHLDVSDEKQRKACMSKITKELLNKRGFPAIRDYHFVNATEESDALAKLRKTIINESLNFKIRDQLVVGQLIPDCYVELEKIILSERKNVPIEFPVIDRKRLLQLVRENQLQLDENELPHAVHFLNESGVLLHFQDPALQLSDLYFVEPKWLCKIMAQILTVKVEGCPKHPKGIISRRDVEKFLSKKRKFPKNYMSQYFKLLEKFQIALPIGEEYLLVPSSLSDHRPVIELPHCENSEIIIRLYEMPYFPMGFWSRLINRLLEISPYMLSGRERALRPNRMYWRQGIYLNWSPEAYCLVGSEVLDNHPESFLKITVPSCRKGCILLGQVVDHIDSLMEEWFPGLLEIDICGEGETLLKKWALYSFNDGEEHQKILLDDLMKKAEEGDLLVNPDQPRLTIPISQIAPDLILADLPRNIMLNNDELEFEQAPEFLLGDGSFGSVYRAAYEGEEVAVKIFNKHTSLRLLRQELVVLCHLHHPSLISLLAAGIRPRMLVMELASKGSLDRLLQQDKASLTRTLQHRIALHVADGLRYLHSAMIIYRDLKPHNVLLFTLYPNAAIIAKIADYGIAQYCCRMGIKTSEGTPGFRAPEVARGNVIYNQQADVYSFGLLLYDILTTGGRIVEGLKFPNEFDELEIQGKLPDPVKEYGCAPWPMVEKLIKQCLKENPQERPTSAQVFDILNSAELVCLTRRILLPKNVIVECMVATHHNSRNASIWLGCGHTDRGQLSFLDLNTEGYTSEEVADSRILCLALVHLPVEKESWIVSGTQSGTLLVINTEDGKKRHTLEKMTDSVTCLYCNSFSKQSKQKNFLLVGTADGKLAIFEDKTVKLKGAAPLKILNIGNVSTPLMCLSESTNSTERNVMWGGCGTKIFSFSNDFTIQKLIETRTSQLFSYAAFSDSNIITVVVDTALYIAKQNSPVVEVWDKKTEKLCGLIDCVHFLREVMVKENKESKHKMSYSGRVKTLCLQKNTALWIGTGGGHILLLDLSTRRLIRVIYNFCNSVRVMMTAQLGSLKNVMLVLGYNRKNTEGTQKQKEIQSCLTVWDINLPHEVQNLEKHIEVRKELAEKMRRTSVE

CCn1cc(Cl)c2cnc(Nc3cn(C4CCN(C(=O)C(C)(C)C)CC4)nc3Cl)nc21 [Compound 33, 1-(4-(3-chloro-4-(5-chloro-7-ethyl-7H-pyrrolo[2,3-d]pyrimidin-2-ylamino)-1H-pyrazol-1-yl)piperidin-1-yl)-2,2-dimethylpropane-1-one]
IC50 [1]: < 10 nM
IC50 [2]: 6.07 nM

CCn1cc(Cl)c2cnc(Nc3c(C)nn(C4CCN(S(C)(=O)=O)CC4)c3C)nc21 [Compound 34, 5-chloro-N-(3,5-dimethyl-1-(1-(methylsulfonyl)piperidin-4-yl)-1H-pyrazol-4-yl)-7-ethyl-7H-pyrrolo[2,3-d]pyrimidin-2-amine]
IC50 [1]: 100 to 1000 nM

CCn1cc(Cl)c2cnc(Nc3cn(C4CCN(S(=O)(=O)C5CC5)CC4)nc3Cl)nc21 [Compound 35, 5-chloro-N-(3-chloro-1-(1-(cyclopropylsulfonyl)piperidin-4-yl)-1H-pyrazol-4-yl)-7-ethyl-7H-pyrrolo[2,3-d]pyrimidin-2-amine]
IC50 [1]: < 10 nM
IC50 [2]: 6.66 nM

CCn1cc(Cl)c2cnc(Nc3cn([C@@H]4CCN(S(C)(=O)=O)C4)nc3Cl)nc21 [Compound 36, (R)-5-chloro-N-(3-chloro-1-(1-(methylsulfonyl)pyrrolidin-3-yl)-1H-pyrazol-4-yl)-7-ethyl-7H-pyrrolo[2,3-d]pyrimidin-2-amine]
IC50 [1]: 10 to 100 nM

CCn1cc(Cl)c2cnc(Nc3cn([C@H]4CCN(S(C)(=O)=O)C4)nc3Cl)nc21 [Compound 37, (S)-5-chloro-N-(3-chloro-1-(1-(methylsulfonyl)pyrrolidin-3-yl)-1H-pyrazol-4-yl)-7-ethyl-7H-pyrrolo[2,3-d]pyrimidin-2-amine]
IC50 [1]: 10 to 100 nM

CCn1cc(Cl)c2cnc(Nc3cn([C@@H]4CCN(C(=O)C5CCCC5)C4)nc3Cl)nc21 [Compound 38, (R)-(3-(3-chloro-4-(5-chloro-7-ethyl-7H-pyrrolo[2,3-d]pyrimidin-2-ylamino)-1H-pyrazol-1-yl)pyrrolidin-1-yl)(cyclopentyl)methanone]
IC50 [1]: 10 to 100 nM

CCn1cc(Cl)c2cnc(Nc3cn([C@H]4CCN(C(=O)C5CCCC5)C4)nc3Cl)nc21 [Compound 39, (S)-(3-(3-chloro-4-(5-chloro-7-ethyl-7H-pyrrolo[2,3-d]pyrimidin-2-ylamino)-1H-pyrazol-1-yl)pyrrolidin-1-yl)(cyclopentyl)methanone]
IC50 [1]: 10 to 100 nM

CCn1cc(Cl)c2cnc(Nc3cn(C4CN(S(C)(=O)=O)C4)nc3Cl)nc21 [Compound 40, 5-chloro-N-(3-chloro-1-(1-(methylsulfonyl)azetidin-3-yl)-1H-pyrazol-4-yl)-7-ethyl-7H-pyrrolo[2,3-d]pyrimidin-2-amine]
IC50 [1]: 10 to 100 nM

CCn1cc(Cl)c2cnc(Nc3cn(C4CN(C(=O)C5CC5)C4)nc3Cl)nc21 [Compound 41, (3-(3-chloro-4-(5-chloro-7-ethyl-7H-pyrrolo[2,3-d]pyrimidin-2-ylamino)-1H-pyrazol-1-yl)azetidin-1-yl)(cyclopropyl)methanone]
IC50 [1]: 10 to 100 nM

CCn1cc(Cl)c2cnc(Nc3cn(C4CCCN(S(C)(=O)=O)CC4)nc3Cl)nc21 (centres unmarked) [Compound 42, 5-chloro-N-(3-chloro-1-(1-(methylsulfonyl)azepan-4-yl)-1H-pyrazol-4-yl)-7-ethyl-7H-pyrrolo[2,3-d]pyrimidin-2-amine]
IC50 [1]: < 10 nM

CCn1cc(Cl)c2cnc(Nc3cn(C4CCCN(C(=O)C5CC5)CC4)nc3Cl)nc21 (centres unmarked) [Compound 43, (4-(3-chloro-4-(5-chloro-7-ethyl-7H-pyrrolo[2,3-d]pyrimidin-2-ylamino)-1H-pyrazol-1-yl)azepan-1-yl)(cyclopropyl)methanone]
IC50 [1]: < 10 nM

CCn1nc(Cl)c2cnc(Nc3cn(-c4ccc(F)cc4)nc3Cl)nc21 [Compound 44, 3-chloro-N-(3-chloro-1-(4-fluorophenyl)-1H-pyrazol-4-yl)-1-ethyl-1H-pyrazolo[3,4-d]pyrimidin-6-amine]
IC50 [1]: 10 to 100 nM

CCn1nc(Cl)c2cnc(Nc3cnn(C4CCN(C5COC5)CC4)c3Cl)nc21 [Compound 45, 3-chloro-N-(5-chloro-1-(1-(oxetan-3-yl)piperidin-4-yl)-1H-pyrazol-4-yl)-1-ethyl-1H-pyrazolo[3,4-d]pyrimidin-6-amine]
IC50 [1]: 10 to 100 nM

CS(=O)(=O)N1CCC(n2cc(Nc3ncc4c(Cl)nn(C5CC5)c4n3)c(Cl)n2)CC1 [Compound 46, 3-chloro-N-(3-chloro-1-(1-(methylsulfonyl)piperidin-4-yl)-1H-pyrazol-4-yl)-1-cyclopropyl-1H-pyrazolo[3,4-d]pyrimidin-6-amine]
IC50 [1]: < 10 nM
IC50 [2]: 7.91 nM

CCn1nc(Cl)c2cnc(Nc3cn(C4CCN(S(=O)(=O)C5CC5)CC4)nc3Cl)nc21 [Compound 47, 3-chloro-N-(3-chloro-1-(1-(cyclopropylsulfonyl)piperidin-4-yl)-1H-pyrazol-4-yl)-1-ethyl-1H-pyrazolo[3,4-d]pyrimidin-6-amine]
IC50 [1]: < 10 nM
IC50 [2]: 6.48 nM

CCn1nc(Cl)c2cnc(Nc3cn(C4CCN(C(=O)C(F)(F)F)CC4)nc3Cl)nc21 [Compound 48, 1-(4-(3-chloro-4-(3-chloro-1-ethyl-1H-pyrazolo[3,4-d]pyrimidin-6-ylamino)-1H-pyrazol-1-yl)piperidin-1-yl)-2,2,2-trifluoroethanone]
IC50 [1]: 10 to 100 nM

CS(=O)(=O)N1CCC(n2cc(Nc3ncc4c(Cl)nn(CC(F)(F)F)c4n3)c(Cl)n2)CC1 [Compound 49, 3-chloro-N-(3-chloro-1-(1-(methylsulfonyl)piperidin-4-yl)-1H-pyrazol-4-yl)-1-(2,2,2-trifluoroethyl)-1H-pyrazolo[3,4-d]pyrimidin-6-amine]
IC50 [1]: 10 to 100 nM

FC(F)(F)Cn1nc(Cl)c2cnc(Nc3cnn(C4CCN(C5COC5)CC4)c3Cl)nc21 [Compound 50, 3-chloro-N-(5-chloro-1-(1-(oxetan-3-yl)piperidin-4-yl)-1H-pyrazol-4-yl)-1-(2,2,2-trifluoroethyl)-1H-pyrazolo[3,4-d]pyrimidin-6-amine]
IC50 [1]: 10 to 100 nM

CCn1nc(Cl)c2cnc(Nc3cn(C4CCCN(S(C)(=O)=O)CC4)nc3Cl)nc21 (centres unmarked) [Compound 51, 3-chloro-N-(3-chloro-1-(1-(methylsulfonyl)azepan-4-yl)-1H-pyrazol-4-yl)-1-ethyl-1H-pyrazolo[3,4-d]pyrimidin-6-amine]
IC50 [1]: < 10 nM
IC50 [2]: 4.75 nM

CCn1nc(Cl)c2cnc(Nc3cn(C4CCCN(C(=O)C5CC5)CC4)nc3Cl)nc21 (centres unmarked) [Compound 52, (4-(3-chloro-4-(3-chloro-1-ethyl-1H-pyrazolo[3,4-d]pyrimidin-6-ylamino)-1H-pyrazol-1-yl)azepan-1-yl)(cyclopropyl)methanone]
IC50 [1]: < 10 nM
IC50 [2]: 5.6 nM

CCn1nc(Cl)c2cnc(Nc3cn(C4CCN(C(=O)C(C)(C)C)CC4)nc3Cl)nc21 [Compound 53, 1-(4-(3-chloro-4-(3-chloro-1-ethyl-1H-pyrazolo[3,4-d]pyrimidin-6-ylamino)-1H-pyrazol-1-yl)piperidin-1-yl)-2,2-dimethylpropane-1-one]
IC50 [1]: < 10 nM

CCn1nc(Cl)c2cnc(Nc3cn(C4CCN(C(=O)N5CCOCC5)CC4)nc3Cl)nc21 [Compound 54, (4-(3-chloro-4-(3-chloro-1-ethyl-1H-pyrazolo[3,4-d]pyrimidin-6-ylamino)-1H-pyrazol-1-yl)piperidin-1-yl)(morpholino)methanone]
IC50 [1]: < 10 nM

CCn1nc(Cl)c2cnc(Nc3cn(C4CCN(S(C)(=O)=O)CC4)nc3Cl)nc21 [Compound 55, 3-chloro-N-(3-chloro-1-(1-(methylsulfonyl)piperidin-4-yl)-1H-pyrazol-4-yl)-1-ethyl-1H-pyrazolo[3,4-d]pyrimidin-6-amine]
IC50 [1]: < 10 nM
IC50 [2]: 4.49 nM

CCn1nc(Cl)c2cnc(Nc3c(Cl)nn(C4CCN(C(=O)C5CC5)CC4)c3C)nc21 [Compound 56, (4-(3-chloro-4-(3-chloro-1-ethyl-1H-pyrazolo[3,4-d]pyrimidin-6-ylamino)-5-methyl-1H-pyrazol-1-yl)piperidin-1-yl)(cyclopropyl)methanone]
IC50 [1]: 100 to 1000 nM

CCn1nc(Cl)c2cnc(Nc3cn(C4CCN(C(=O)C5CC5)CC4)nc3Cl)nc21 [Compound 57, (4-(3-chloro-4-(3-chloro-1-ethyl-1H-pyrazolo[3,4-d]pyrimidin-6-ylamino)-1H-pyrazol-1-yl)piperidin-1-yl)(cyclopropyl)methanone]
IC50 [1]: < 10 nM
IC50 [2]: 7.22 nM

CCn1nc(Cl)c2cnc(Nc3cn(C4CCN(C(C)=O)CC4)nc3Cl)nc21 [Compound 58, 1-(4-(3-chloro-4-(3-chloro-1-ethyl-1H-pyrazolo[3,4-d]pyrimidin-6-ylamino)-1H-pyrazol-1-yl)piperidin-1-yl)ethanone]
IC50 [1]: < 10 nM
IC50 [2]: 5.92 nM

CCn1nc(Cl)c2cnc(Nc3cn(C4CCN(S(=O)(=O)CC)CC4)nc3Cl)nc21 [Compound 59, 3-chloro-N-(3-chloro-1-(1-(ethylsulfonyl)piperidin-4-yl)-1H-pyrazol-4-yl)-1-ethyl-1H-pyrazolo[3,4-d]pyrimidin-6-amine]
IC50 [1]: < 10 nM
IC50 [2]: 3.94 nM

CCn1nc(Cl)c2cnc(Nc3cn(C4CN(C(=O)C5CC5)C4)nc3Cl)nc21 [Compound 60, (3-(3-chloro-4-(3-chloro-1-ethyl-1H-pyrazolo[3,4-d]pyrimidin-6-ylamino)-1H-pyrazol-1-yl)azetidin-1-yl)(cyclopropyl)methanone]
IC50 [1]: 10 to 100 nM
